Measurements: ChEMBL document CHEMBL1125758, “(Acyloxy)alkyl carbamate prodrugs of norfloxacin” (J Med Chem, 1991)
≈ marks a conversion by molar mass, not a printed value. Blank lines part the entries; values can stand above or below the molecule they belong to.

Experiments:
[1] = Solubility in bicarbonate buffer (0.05 M) at 25 degree centigrade(pH 8.5); type: physicochemical; conditions: read-out: S
[2] = Solubility in phosphate buffer (0.1 M) at 25 degree centigrade(pH 7.4); type: physicochemical
[3] = Half life in a medium of rat serum.; type: ADME, organism-based
[4] = Half life in a medium of dog serum.; type: ADME, organism-based, Canis lupus familiaris
[5] = Solubility in citrate buffer (0.1 M) at 25 degree centigrade(pH 5); type: physicochemical; conditions: for solubility: citrate buffer, read-out: S
Proteus vulgaris [6] = test: Antibacterial activity against Prot. vulgaris(2829); type: functional
Pseudomonas aeruginosa [7] = test: Antibacterial activity against Ps. aeruginoa(4279); type: functional
Escherichia coli [8] = test: Antibacterial activity against Escherichia coli TEM 2+(4351); type: functional
Pseudomonas aeruginosa [9] = test: Antibacterial activity against Ps. aeruginosa RPL11+(3350); type: functional
Klebsiella aerogenes [10] = test: Antibacterial activity against Ent. aerogenes(2828); type: functional
Rhesus monkey [11] = test: Urine conc 0-24 hours following 25mg/kg dose; type: functional, Macaca mulatta
Enterobacter cloacae [12] = test: Antibacterial activity against Ent. cloacae 99+(2646); type: functional; conditions: P99
Klebsiella pneumoniae [13] = test: Antibacterial activity against Klebsiella pneumoniae K1+(4354); type: functional
Rhesus monkey [14] = test: (§1) Urine conc 0-5 hours following 25 mg/kg dose; type: functional, Macaca mulatta
Pseudomonas aeruginosa [15] = test: Antibacterial activity against Ps. aeruginoa(2835); type: functional
Monkey = test: % dose recovered in urine; type: functional, Cercopithecidae
Serratia marcescens = test: Antibacterial activity against Ser. marcescens (2840); type: functional
Staphylococcus aureus [16] = test: Antibacterial activity against Staphylococcus aureus (2868); type: functional
Proteus mirabilis [17] = test: Antibacterial activity against Prot. mirabilis GmR(2830); type: functional
Escherichia coli [18] = test: Antibacterial activity against Escherichia coli DC2(4353); type: functional
[19] = Solubility in water at 25 degree Centigrade; type: physicochemical; conditions: read-out: S
Staphylococcus aureus [20] = test: Antibacterial activity against Staphylococcus aureus (2865); type: functional
Klebsiella pneumoniae [21] = test: Antibacterial activity against Klebsiella pneumoniae (4005); type: functional
Rhesus monkey [22] = test: (§2) Serum conc at 3 hours following 25 mg/kg dose; type: functional, Macaca mulatta
[23] = Half life in a medium of rat intestinal homogenate.; type: ADME
Enterobacter cloacae [24] = test: Antibacterial activity against Ent. cloacae P99-(2647); type: functional
Escherichia coli [25] = test: Antibacterial activity against Escherichia coli (2891); type: functional
[26] = Half life in a medium of phosphate buffer in pH 7.4; type: ADME
Streptococcus sp. = test: Antibacterial activity against Strep. Faecalis (2864); type: functional
Morganella morganii [27] = test: Antibacterial activity against Prot. morganii SmR(2833); type: functional
[28] = Half life in a medium of human serum.; type: ADME, organism-based
Salmonella typhimurium = test: Antibacterial activity against Sal. Typhimurium (3860); type: functional, Salmonella enterica subsp. enterica serovar Typhimurium; conditions: Salmonella enterica
Staphylococcus aureus [29] = test: Antibacterial activity against Staphylococcus aureus GmR Meth(4310); type: functional
Escherichia coli [30] = test: Antibacterial activity against Escherichia coli TEM 2+ DC2(4352); type: functional
Staphylococcus aureus [31] = test: Antibacterial activity against Staphylococcus aureus GmR Meth (4310); type: functional
Escherichia coli [32] = test: Antibacterial activity against Escherichia coli DC2 (4353); type: functional
[33] = as §1; type: ADME, organism-based, Macaca mulatta; design: dose 25 mg/kg; conditions: rhesus monkey, in vivo
Proteus mirabilis [34] = test: Antibacterial activity against Prot. mirabilis GmR (2830); type: functional
Enterococcus faecalis = test: Antibacterial activity against Strep. faecalis (2864); type: functional
Pseudomonas aeruginosa [35] = test: Antibacterial activity against Ps. aeruginosa RPL11+ (3350); type: functional
Enterobacter cloacae [36] = test: Antibacterial activity against Ent. cloacae P99- (2647); type: functional
Morganella morganii [37] = test: Antibacterial activity against Prot. morganii SmR (2833); type: functional
[38] = as §2; type: ADME, organism-based, Macaca mulatta; design: dose 25 mg/kg; conditions: rhesus monkey, read-out: Concentration_plasma
Klebsiella aerogenes [39] = test: Antibacterial activity against Ent. aerogenes (2828); type: functional
Pseudomonas aeruginosa [40] = test: Antibacterial activity against Ps. aeruginosa (2835); type: functional
[41] = Urine conc 0-24 hours following 25 mg/kg dose; type: ADME, organism-based, Macaca mulatta; design: dose 25 mg/kg; conditions: rhesus monkey, in vivo
Enterobacter cloacae [42] = test: Antibacterial activity against Ent. cloacae 99+ (2646); type: functional; conditions: P99
Proteus vulgaris [43] = test: Antibacterial activity against Prot. vulgaris (2829); type: functional
Klebsiella pneumoniae [44] = test: Antibacterial activity against Klebsiella pneumoniae K1+ (4354); type: functional
Pseudomonas aeruginosa [45] = test: Antibacterial activity against Ps. aeruginosa (4279); type: functional
Escherichia coli [46] = test: Antibacterial activity against Escherichia coli TEM 2+ (4351); type: functional
Escherichia coli [47] = test: Antibacterial activity against Escherichia coli TEM 2+ DC2 (4352); type: functional

- solubility [1]: 150 µg/mL (≈ 334 µM)
- solubility [2]: 60 µg/mL (≈ 134 µM)
- half-life [3]: 1.5 min
- half-life [4]: 6 min
- solubility [5]: 30 µg/mL (≈ 66.8 µM)
SMILES: CCn1cc(C(=O)O)c(=O)c2cc(F)c(N3CCN(C(=O)OC(C)OC(C)=O)CC3)cc21 (centres undefined)

- solubility [1]: 410 µg/mL (≈ 942 µM)
- MIC (Proteus vulgaris [6]): > 128 µg/mL
- MIC (Pseudomonas aeruginosa [7]): > 128 µg/mL
- MIC (Escherichia coli [8]): > 128 µg/mL
- MIC (Pseudomonas aeruginosa [9]): > 128 µg/mL
- MIC (Klebsiella aerogenes [10]): > 128 µg/mL
- MIC (Enterobacter cloacae [12]): > 128 µg/mL
- MIC (Klebsiella pneumoniae [13]): > 128 µg/mL
- MIC (Pseudomonas aeruginosa [15]): > 128 µg/mL
- solubility [2]: 50 µg/mL (≈ 115 µM)
- MIC (Serratia marcescens): > 128 µg/mL
- MIC (Staphylococcus aureus [16]): 1 µg/mL (≈ 2.3 µM)
- MIC (Proteus mirabilis [17]): > 128 µg/mL
- MIC (Escherichia coli [18]): > 128 µg/mL
- solubility [19]: 60 µg/mL (≈ 138 µM)
- MIC (Staphylococcus aureus [20]): 2 µg/mL (≈ 4.59 µM)
- MIC (Klebsiella pneumoniae [21]): 32 µg/mL (≈ 73.5 µM)
- half-life [23]: 2.6 min
- MIC (Enterobacter cloacae [24]): > 128 µg/mL
- MIC (Escherichia coli [25]): 128 µg/mL (≈ 294 µM)
- half-life [26]: 128 h
- MIC (Streptococcus sp.): > 128 µg/mL
- MIC (Morganella morganii [27]): 8 µg/mL (≈ 18.4 µM)
- half-life [28]: 116 min
- half-life [3]: 1.5 min
- half-life [4]: 6 min
- solubility [5]: 5 µg/mL (≈ 11.5 µM)
- MIC (Salmonella typhimurium): > 128 µg/mL
- MIC (Staphylococcus aureus [29]): 2 µg/mL (≈ 4.59 µM)
- MIC (Escherichia coli [30]): > 128 µg/mL
SMILES: CCn1cc(C(=O)O)c(=O)c2cc(F)c(N3CCN(C(=O)OCOC(C)=O)CC3)cc21
- Concentration_urine (Rhesus monkey [11]): 21.97 µg/mL
- Concentration_urine (Rhesus monkey [14]): 25.03 µg/mL
- Dose (Monkey): 7.23%
- Concentration_plasma (Rhesus monkey [22]): 0.36 µg/mL

SMILES: CCn1cc(C(=O)O)c(=O)c2cc(F)c(N3CCNCC3)cc21 [NORFLOXACIN]
- solubility [1]: 210 µg/mL (≈ 658 µM)
- MIC (Staphylococcus aureus [31]): 1 µg/mL (≈ 3.13 µM)
- MIC (Escherichia coli [32]): 0.5 µg/mL (≈ 1.57 µM)
- Concentration_urine [33]: 175860 ng/mL
- MIC (Proteus mirabilis [34]): 0.06 µg/mL (≈ 0.188 µM)
- MIC (Enterococcus faecalis): 8 µg/mL (≈ 25.1 µM)
- solubility [2]: 200 µg/mL (≈ 626 µM)
- Dose (Monkey): 16.3%
- MIC (Serratia marcescens): 4 µg/mL (≈ 12.5 µM)
- MIC (Staphylococcus aureus [16]): 1 µg/mL (≈ 3.13 µM)
- MIC (Pseudomonas aeruginosa [35]): 1 µg/mL (≈ 3.13 µM)
- MIC (Enterobacter cloacae [36]): 0.25 µg/mL (≈ 0.783 µM)
- MIC (Morganella morganii [37]): 0.06 µg/mL (≈ 0.188 µM)
- solubility [19]: 190 µg/mL (≈ 595 µM)
- MIC (Staphylococcus aureus [20]): 0.25 µg/mL (≈ 0.783 µM)
- MIC (Klebsiella pneumoniae [21]): 0.06 µg/mL (≈ 0.188 µM)
- concentration at 3 h [38]: 760 ng/mL
- MIC (Klebsiella aerogenes [39]): 0.5 µg/mL (≈ 1.57 µM)
- MIC (Pseudomonas aeruginosa [40]): 1 µg/mL (≈ 3.13 µM)
- Concentration_urine [41]: 33780 ng/mL
- MIC (Escherichia coli [25]): 0.06 µg/mL (≈ 0.188 µM)
- MIC (Enterobacter cloacae [42]): 1 µg/mL (≈ 3.13 µM)
- S ([5]; buffer): 8 mg/mL
- MIC (Salmonella typhimurium): 0.5 µg/mL (≈ 1.57 µM)
- MIC (Proteus vulgaris [43]): 0.06 µg/mL (≈ 0.188 µM)
- MIC (Klebsiella pneumoniae [44]): 8 µg/mL (≈ 25.1 µM)
- MIC (Pseudomonas aeruginosa [45]): 1 µg/mL (≈ 3.13 µM)
- MIC (Escherichia coli [46]): 0.03 µg/mL (≈ 0.0939 µM)
- MIC (Escherichia coli [46]; Escherichia coli, read-out: MIC): 0.03 µg/mL (≈ 0.0939 µM)
- MIC (Escherichia coli [47]): 0.5 µg/mL (≈ 1.57 µM)
